Results published in PubChem BioAssay (NCI).
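Step 1: Grow cells in 96-well plates. Step 2: Expose to compound for 48 hours at 5 concentrations. Step 3: Interpolate endpoints linearly; if unreached, use highest concentration. At the GI50, growth is halved. TGI denotes the concentration required for complete inhibition of growth.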

Legend:
Experiment in all cases: NCI-60 cell line screen, 48 h
SF-295 CNS = system: SF-295 CNS
U251 CNS = system: U251 CNS
HOP-92 NSCLC = system: HOP-92 NSCLC
KM12 colon = system: KM12 colon
CCRF-CEM leukemia = system: CCRF-CEM leukemia
OVCAR-8 ovarian = system: OVCAR-8 ovarian
UACC-257 melanoma = system: UACC-257 melanoma
SK-OV-3 ovarian = system: SK-OV-3 ovarian
K-562 leukemia = system: K-562 leukemia
HCT-15 colon = system: HCT-15 colon

Structure (SMILES)	GI50 (SF-295 CNS)	TGI (SF-295 CNS)	GI50 (U251 CNS)	TGI (U251 CNS)	GI50 (HOP-92 NSCLC)	TGI (HOP-92 NSCLC)	GI50 (KM12 colon)	TGI (KM12 colon)	GI50 (CCRF-CEM leukemia)	TGI (CCRF-CEM leukemia)	GI50 (OVCAR-8 ovarian)	TGI (OVCAR-8 ovarian)	GI50 (UACC-257 melanoma)	TGI (UACC-257 melanoma)	GI50 (SK-OV-3 ovarian)	TGI (SK-OV-3 ovarian)	GI50 (K-562 leukemia)	TGI (K-562 leukemia)	GI50 (HCT-15 colon)	TGI (HCT-15 colon)
CC(=O)Nc1ccc(S(=O)(=O)NNC(=O)c2cccnc2Nc2ccc(Cl)cc2)cc1	3490 nM	> 100 µM	23.8 µM	> 100 µM	> 100 µM	> 100 µM	4.19 µM	> 100 µM	21300 nM	> 100 µM	36.2 µM	> 100 µM	89.4 µM	> 100 µM	57.5 µM	> 100 µM	8500 nM	> 100 µM	13.7 µM	> 100 µM
C=C1C(=O)O[C@H]2C[C@@]3(C)[C@H](O)CCC(=C)[C@@H]3[C@@H](OC(C)=O)[C@H]12		40.5 µM		> 71.3 µM		16 µM		36 µM		2.96 µM		50.4 µM		34.8 µM		> 83.6 µM		> 23.3 µM		7.93 µM
C=C1C(=O)OC2/C=C(\C=O)CC/C=C(\C)C(O)C[C@@H]12 (stereo not given in full)		28.3 µM		35.4 µM		17.2 µM		18.5 µM		> 26.5 µM		12 µM		18 µM		52.5 µM		> 36.1 µM		14.9 µM
COc1ccc2c(c1)[n+]([O-])c(/C(C)=N/NC(=O)CC#N)c[n+]2[O-]		> 100 µM		> 100 µM		> 100 µM		> 100 µM		> 100 µM		> 100 µM		> 100 µM		> 100 µM		> 100 µM		> 100 µM
COC(=O)C1=C(CS(=O)c2ccccc2[N+](=O)[O-])ON(C)C1c1ccccc1 (stereo not given)		> 100 µM		> 100 µM				> 100 µM		39.3 µM		56.2 µM		> 100 µM		> 100 µM		78 µM		76.3 µM
O=C1CCCN1CC#CCN1CCCC1	> 100000 nM	> 100 µM	> 100 µM	> 100 µM	> 100 µM	> 100 µM	> 100 µM	> 100 µM	> 100000 nM	> 100 µM	> 100 µM	> 100 µM	> 100 µM	> 100 µM	> 100 µM	> 100 µM	> 100000 nM	> 100 µM	> 100 µM	> 100 µM
CC(C)Oc1cc(O)c2c(c1)OCC=C2CCC(=O)O		> 100 µM		> 100 µM		76.6 µM		> 100 µM		43.3 µM		> 100 µM		61.4 µM		> 100 µM		> 100 µM		66.2 µM
COC(=O)CCCCCN=Cc1c(O)c(O)c(C(C)C)c2cc(C)c(-c3c(C)cc4c(C(C)C)c(O)c(O)c(C=NCCCCCC(=O)OC)c4c3O)c(O)c12	911 nM	5.34 µM	1 µM	5.6 µM	0.797 µM	2.88 µM	1.28 µM	> 32.5 µM	946 nM	11.1 µM	1.27 µM	> 32.5 µM			1.51 µM	20 µM	1070 nM	6.03 µM	1.55 µM	> 32.5 µM
COc1ccc(Cn2c(Cl)c(/C=C3/C(=O)Nc4ccccc43)c3cc(OC)c(C)cc32)cc1	2920 nM	24.2 µM	6.05 µM	> 100 µM	53.8 µM	> 100 µM	3.99 µM	23.8 µM	4940 nM	> 100 µM	5.96 µM	> 100 µM	55.3 µM	> 100 µM	3.56 µM	> 100 µM			4.15 µM	> 100 µM
Cc1nc(C(N)=S)sc1C(=O)C/C(=N/N)C(=O)Nc1cccc(Cl)c1C		> 100 µM		> 100 µM		> 100 µM		> 100 µM		> 100 µM		> 100 µM		> 100 µM		> 100 µM		> 100 µM		> 100 µM
COc1ccc(-c2cn[nH]c2-c2cc(OC)c3c(c2)OCCO3)cc1	73.5 nM	12.1 µM	0.159 µM	12.2 µM	1.04 µM	28.1 µM	0.0502 µM	7.85 µM	298 nM	> 73.9 µM	0.363 µM	21 µM	14.8 µM	55.4 µM	0.4 µM	35.5 µM	39.1 nM	> 100 µM	0.0635 µM	22.4 µM
COC(=O)C1=C(C(=O)OC)SC(=C(Cl)C(=S)Sc2ccccc2N)S1	26200 nM	64.5 µM	18.5 µM	35.4 µM	46.4 µM	> 100 µM	> 100 µM	> 100 µM			46.6 µM	> 100 µM	20.3 µM	55.7 µM	41.3 µM	> 100 µM	68700 nM	> 100 µM	43.8 µM	> 100 µM
Cc1cc2c(=O)c3ccccc3[nH]c2c(C(=O)O)c1C		> 100 µM		> 100 µM				> 100 µM		> 100 µM		> 100 µM		> 100 µM				> 100 µM		> 100 µM
O=C1CCC(O)=C1O		> 100 µM		> 100 µM		> 100 µM		> 100 µM		> 100 µM		> 100 µM				> 100 µM		> 100 µM		> 100 µM
O=C1Nc2cccc3cc(NCC(O)CCl)cc1c23 (stereo not given)		> 100 µM		> 100 µM		> 100 µM		> 100 µM		> 100 µM		> 100 µM		> 100 µM		> 100 µM		> 100 µM		> 100 µM
C/C(=N\NC(N)=S)c1nc2ccc(Cl)cc2[nH]1	1330 nM	6.33 µM	2.6 µM	13 µM	12 µM	39.1 µM	2.03 µM	16.2 µM	2110 nM	> 50 µM	2.57 µM	15.5 µM	5.05 µM	> 50 µM	2.31 µM	9.19 µM	2370 nM	> 50 µM	0.857 µM	12.5 µM
